# Experimental data: US9981960B2, “Pyrrolidine compound and application as melanocortin receptor agonist” (MITSUBISHI TANABE PHARMA CORPORATION, priority 2014, dated 2018)
# Molecular target: T1, Human MC1R (Homo sapiens, UniProt Q01726)
# T1 construct: endogenous in cells; host or cells: human melanoma cell line HBL
# Assay: MCR agonist measurement (cAMP measurement), human MC1R agonist activity in human melanoma cell line HBL
# Format: cell-based
# Conditions: HBL cells; for EC50: 37° C. for 30 minutes, intracellular cAMP by fluorescence method; for Human MC1R IA %: Intrinsic Activity, vehicle cAMP = 0%, αMSH at 10^-6 M = 100%
# Method: (1) Method for Culturing Cells
# Human MC1R agonist activity measurement was carried out by using human melanoma cell line HBL. Culture of HBL: F-10 Nutrient Mixture containing 10% FCS and Penicillin-streptomycin was used in the culture.
# (2) cAMP Assay and Data Calculation
# Each compound solution having each concentration was mixed with cAMP assay buffer (HBSS (Hank's Balanced Salt Solution) containing 10 mM HEPES and 0.1% BSA), and dispensed into 96 well plate. HBL was suspended in cAMP assay buffer containing 0.5 mM IBMX so that the concentrate became 5×10^4/mL, dispensed into the above 96 well plate, then mixed, left to stand at 37° C. for 30 minutes, and then the intracellular […] concentration was measured by fluorescence method using Envision (ex. 320 nm, em. 590 nm and 665 nm).
# T1 sequence (Q01726 whole entry): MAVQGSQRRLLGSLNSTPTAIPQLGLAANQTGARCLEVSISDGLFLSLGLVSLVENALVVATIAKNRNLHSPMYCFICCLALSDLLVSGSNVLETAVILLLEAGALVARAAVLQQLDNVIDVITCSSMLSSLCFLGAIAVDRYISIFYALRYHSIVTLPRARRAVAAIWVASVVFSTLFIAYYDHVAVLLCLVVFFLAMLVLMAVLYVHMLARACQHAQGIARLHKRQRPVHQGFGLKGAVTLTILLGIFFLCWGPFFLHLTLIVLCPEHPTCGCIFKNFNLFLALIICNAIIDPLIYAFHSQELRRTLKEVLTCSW
SMILES,EC50,Human MC1R IA %
COC[C@@]1(OC)CN(C(=O)[C@]2(F)CN([C@H]3CC[C@H](OC)CC3)C[C@H]2c2ccc(OC)cc2)C[C@@H]1c1ccc(C(F)(F)F)cc1N1CCC(C(=O)O)CC1 [Example 156],29 nM,83%
COc1ccc([C@@H]2CN(C3CCCC3)C[C@@]2(F)C(=O)N2CCC=C(c3ccc(C(F)(F)F)cc3N3CCC(C(=O)O)CC3)C2)cc1 [Example 163],20 nM,36%
COc1ccc([C@@H]2CN(C3CCN(C(CF)CF)CC3)C[C@@]2(F)C(=O)N2CCC(c3ccc(C(F)(F)F)cc3N3CCC(C(=O)O)CC3)CC2)cc1 [Example 193],17 nM,103%
COc1ccc([C@@H]2CN(C(C)(C)C)C[C@@]2(F)C(=O)N2CCC(c3ccc(Cl)cc3N3CCC(C(=O)O)CC3)CC2)cc1 [Example 195],40 nM,87%
COc1ccc([C@@H]2CN(C(C)(C)C)C[C@@]2(F)C(=O)N2CCC(c3ccc(C(F)F)cc3N3CCC(C(=O)O)CC3)CC2)cc1 [Example 198],45 nM,66%
COC[C@H]1CN(C(=O)[C@]2(F)CN(C3CCCC3)C[C@H]2c2ccc(OC)cc2)C[C@@H]1c1cc(F)c(F)cc1N1CCC(C(=O)O)CC1 [Example 201],31 nM,107%
COc1ccc([C@@H]2CN(C(C)(C)C)C[C@@]2(F)C(=O)N2CCC(c3ccc(C(F)(F)F)cc3N3CCC(N(C)C)CC3)CC2)cc1 [Example 205],38 nM,67%
COc1ccc([C@@H]2CN(C3CCOCC3)C[C@@]2(F)C(=O)N2CC[C@@H](c3ccc(C(F)(F)F)cc3N3CCC(C(=O)O)CC3)C2)cc1 [Example 215],14 nM,59%
COc1ccc([C@@H]2CN(C3CCN(C(CF)CF)CC3)C[C@@]2(F)C(=O)N2CC[C@@H](c3ccc(F)cc3N3CCC(C(=O)O)CC3)C2)cc1 [Example 220],2.8 nM,75%
"COc1ccc([C@@H]2CN(C(C)(C)C)C[C@@]2(F)C(=O)N2C[C@H](C(=O)O)[C@@H](c3ccc(C(F)(F)F)cc3N3CCC(C(=O)OC(C)(C)C)CC3)C2)cc1 [Example 223, (3R,4S)-4-{2-[4-(tert-butoxycarbonyl)piperidin-1-yl]-4-(trifluoromethyl)phenyl}-1-{[(3R,4R)-1-tert-butyl-3-fluoro-4-(4-methoxyphenyl)pyrrolidin-3-yl]carbonyl}pyrrolidin-3-carboxylic acid]",90 nM,71%
"COc1ccc([C@@H]2CN(C(C)(C)C)C[C@@]2(F)C(=O)N2C[C@H](CO)[C@@H](c3ccc(C(F)(F)F)cc3N3CCC(C(=O)O)CC3)C2)cc1.Cl.Cl [Example 224, 1-{2-[(3S,4R)-1-{[(3R,4R)-1-tert-butyl-3-fluoro-4-(4-methoxyphenyl)pyrrolidin-3-yl]carbonyl}-4-(hydroxymethyl)pyrrolidin-3-yl]-5-(trifluoromethyl)phenyl}piperidine-4-carboxylic acid dihydrochloride]",11 nM,109%
"COc1ccc([C@@H]2CN(C(C)(C)C)C[C@@]2(F)C(=O)N2C[C@H](C(=O)N(C)C)[C@@H](c3ccc(C(F)(F)F)cc3N3CCC(C(=O)O)CC3)C2)cc1.Cl.Cl [Example 226, 1-{2-[(3S,4R)-1-{[(3R,4R)-1-tert-butyl-3-fluoro-4-(4-methoxyphenyl)pyrrolidin-3-yl]carbonyl}-4-(dimethylcarbamoyl)pyrrolidin-3-yl]-5-(trifluoromethyl)phenyl}piperidine-4-carboxylic acid dihydrochloride]",47 nM,132%
"COc1ccc([C@@H]2CN(C(C)(C)C)C[C@@]2(F)C(=O)N2C[C@H](c3ccc(C(F)(F)F)cc3N3CCC(C(=O)O)CC3)[C@@H](C#N)C2)cc1.Cl.Cl [Example 227, 1-{2-[(3S,4R)-1-{[(3R,4R)-1-tert-butyl-3-fluoro-4-(4-methoxyphenyl)pyrrolidin-3-yl]carbonyl}-4-cyanopyrrolidin-3-yl]-5-(trifluoromethyl)phenyl}piperidine-4-carboxylic acid dihydrochloride]",85 nM,114%
"COc1ccc([C@@H]2CN(C3CCCC3)C[C@@]2(F)C(=O)N2C[C@H](c3ccc(C(F)(F)F)cc3N3CCC(C(=O)O)CC3)[C@@H](C(C)(C)O)C2)cc1.Cl.Cl [Example 228, 1-{2-[(3S,4R)-1-{[(3R,4R)-1-cyclopentyl-3-fluoro-4-(4-methoxyphenyl)pyrrolidin-3-yl]carbonyl}-4-(2-hydroxypropan-2-yl)pyrrolidin-3-yl]-5-(trifluoromethyl)phenyl}piperidine-4-carboxylic acid dihydrochloride]",11 nM,77%
"CNC(=O)C1CCN(c2cc(C(F)(F)F)ccc2C2CCN(C(=O)[C@]3(F)CN(C(C)(C)C)C[C@H]3c3ccc(OC)cc3)CC2)CC1.Cl.Cl [Example 231, 1-[2-(1-{[(3R,4R)-1-tert-butyl-3-fluoro-4-(4-methoxyphenyl)pyrrolidin-3-yl]carbonyl}piperidin-4-yl)-5-(trifluoromethyl)phenyl]-N-methylpiperidine-4-carboxamide dihydrochloride]",11 nM,82%
COc1ccc([C@@H]2CN(C(C)(C)C)C[C@@]2(F)C(=O)N2CCC(c3ccc(C(F)(F)F)cc3N3CCC(C(=O)N4CCCC4)CC3)CC2)cc1 [Example 235],79 nM,124%
COc1ccc([C@@H]2CN(C(C)(C)C)C[C@@]2(F)C(=O)N2CC(c3ccc(C(F)(F)F)cc3N3CCC(C(=O)N(C)C)CC3)C2)cc1 [Example 249],37 nM,149%
COc1ccc([C@@H]2CN(C(C)(C)C)C[C@@]2(F)C(=O)N2CCC(c3ccc(C(F)(F)F)cc3C(N)=O)CC2)cc1 [Example 267],80 nM,112%

# More lines, now with the values ahead:
EC50,Human MC1R IA %,SMILES
0.76 nM,96%,COC[C@@H]1C[C@@H](c2ccc(C(F)(F)F)cc2N2CCC(C(=O)O)CC2)CN1C(=O)[C@]1(F)CN([C@H]2CC[C@H](C#N)CC2)C[C@H]1c1ccc(OC)cc1 [Example 143]
0.75 nM,118%,CCO[C@H]1CC[C@H](N2C[C@@H](c3ccc(OC)cc3)[C@](OC)(C(=O)N3C[C@H](c4ccc(C(F)(F)F)cc4N4CCC(C(=O)O)CC4)C[C@H]3COC)C2)CC1 [Example 146]
3.6 nM,93%,COc1ccc([C@@H]2CN([C@H]3CC[C@H](OC)CC3)C[C@@]2(F)C(=O)N2C[C@H](c3ccc(C(F)(F)F)cc3N3CCC(C(=O)O)CC3)[C@@H](F)C2)cc1 [Example 148]
1.1 nM,85%,COC[C@@H]1C[C@@H](c2ccc(C(F)(F)F)cc2N2CCC(C(=O)O)CC2)CN1C(=O)[C@]1(OC)CN(C2CCCCCC2)C[C@H]1c1ccc(OC)cc1 [Example 154]
0.67 nM,106%,COC[C@@H]1C[C@@H](c2ccc(C(F)(F)F)cc2N2CCC(C(=O)O)CC2)CN1C(=O)[C@]1(OC)CN([C@H]2CC[C@H](OC(C)C)CC2)C[C@H]1c1ccc(OC)cc1 [Example 160]
7.4 nM,80%,COc1ccc([C@@H]2CN(C(C)(C)C)C[C@@]2(F)C(=O)N2CCC(c3ccc(C(F)(F)F)cc3[C@H]3C[C@H](C(=O)O)C3)CC2)cc1 [Example 177]
0.89 nM,88%,COc1ccc([C@@H]2CN([C@H]3CC[C@H](OC)CC3)C[C@@]2(F)C(=O)N2CC[C@@H](c3ccc(C(F)(F)F)cc3N3CCC(C(=O)O)CC3)C2)cc1 [Example 213]
4.3 nM,110%,COc1ccc([C@@H]2CN([C@H]3CC[C@H](OC)CC3)C[C@@]2(F)C(=O)N2CC[C@@H](c3ccc(F)cc3N3CCC(C(=O)O)CC3)C2)cc1 [Example 218]
6.7 nM,104%,COc1ccc([C@@H]2CN(C3CCN(C(CF)CF)CC3)C[C@@]2(F)C(=O)N2CC[C@@H](c3ccc(C(F)(F)F)cc3N3CCC(C(=O)O)CC3)C2)cc1 [Example 219]
10 nM,95%,COc1ccc([C@@H]2CN(C(C)(C)C)C[C@@]2(F)C(=O)N2CCC(c3ccc(C(F)(F)F)cc3N3CCC(C(N)=O)CC3)CC2)cc1 [Example 232]
7.3 nM,105%,COc1ccc([C@@H]2CN(C(C)(C)C)C[C@@]2(F)C(=O)N2CCC(c3ccc(C(F)(F)F)cc3N3CCC(C(=O)N(C)C)CC3)CC2)cc1 [Example 234]
5.1 nM,92%,COC[C@H]1CN(C(=O)[C@]2(F)CN(C3CCCC3)C[C@H]2c2ccc(OC)cc2)C[C@@H]1c1ccc(C(F)(F)F)cc1N1CCC(C(=O)N(C)C)CC1 [Example 248]
3 nM,115%,COC[C@H]1CN(C(=O)[C@]2(F)CN([C@H]3CC[C@H](OC)CC3)C[C@H]2c2ccc(OC)cc2)C[C@@H]1c1ccc(C(F)(F)F)cc1N1CCC(C(=O)N(C)C)CC1 [Example 256]
6.7 nM,73%,COC[C@H]1CN(C(=O)[C@]2(F)CN(C3CCCC3)C[C@H]2c2ccc(OC)cc2)C[C@@H]1c1ccc(C(F)(F)F)cc1N1CCC(C(=O)N(C)CC(=O)O)CC1 [Example 269]
5.6 nM,82%,COC[C@H]1CN(C(=O)[C@]2(F)CN(C3CCCC3)C[C@H]2c2ccc(OC)cc2)C[C@@H]1c1ccc(C(F)(F)F)cc1N1CCC(C(=O)N2CCC[C@@H]2C(=O)O)CC1 [Example 270]
